Measured values published in a melting point compilation (Tetko et al.; mined from patent text by program, amines drawn as free bases though some values may be those of a salt).

SMILES	melting point
NCC1CN(c2c(F)cc3c(=O)c(C(=O)O)cn(-c4nc(N)c(F)cc4F)c3c2Cl)C1	249 to 254 °C
c1cc(-c2cn([C@H]3CN4CCC3CC4)nn2)ccn1	150 °C
C=CC1CN(c2ncc(C(=O)N(CCCCC)c3cccc(C(F)(F)F)c3)c(N)n2)C(=O)N1 (stereo not given)	135 to 137 °C
CCOC(=O)C(Cc1cccc(OC)c1Oc1ccc([N+](=O)[O-])cc1)(NC(C)=O)C(=O)OCC	189 to 190 °C
NCC1(c2onc(-c3ccc(O)cc3)c2-c2ccccc2)CC1	220 to 225 °C
CCOC(=O)C(NC(=O)CCNC(=O)CO)C(=O)OCC	94.5 to 96 °C
NC(=O)c1c(Cl)cc(Cl)c(C(=O)O)c1Cl	280 °C
COc1cc(C=CC(=O)C(C)C(=O)C=Cc2ccc(O)c(OC)c2)ccc1O (stereo not given)	180 to 183 °C
CC(=O)OC1CSC(Oc2ccc(-c3ccnc(Cl)c3)nc2)C(OC(C)=O)C1OC(C)=O (stereo not given)	226 °C
CC(C)n1nc(-c2c(OCC(N)=O)nc(N)nc2-c2ccccc2)ccc1=O	257 to 261 °C
CC(C)(C)N1CC(c2ccc([N+](=O)[O-])cc2)OC1=O (stereo not given)	123 to 125 °C
Cc1nn(Cc2ccccc2)c2c1c(=O)n(-c1ccccc1)c1ncccc21	274 to 276 °C
Cc1cn(-c2cccc(OCCOS(N)(=O)=O)c2)cn1	169 to 170 °C
N#CN=C(N)NCc1ccc2c(c1)Nc1nccnc1S2	246 to 248 °C
CC(C)c1ccc(C(O)C(=O)O)cc1 (stereo not given)	156 to 157 °C
CC(C)C(C)(C(N)=O)N1C(=O)c2ccc3ccn(C)c3c2C1=O (stereo not given)	184 to 189 °C
Cc1cc(Oc2cccc(C(F)(F)F)c2)nc(C(=O)O)c1	75 to 77 °C
CN1C(=O)N(N=Cc2cccnc2)Cc2cc(C(F)(C(F)(F)F)C(F)(F)F)ccc21	> 300 °C
COC(=O)CCCc1cc2nc(Cl)ccc2n1S(=O)(=O)c1ccc(F)c(F)c1	96 to 98 °C
COCc1cnc2c(NC(=O)c3c(Cl)cccc3Cl)cccc2c1CO	199 to 200 °C
CC(C)(C)NS(=O)(=O)c1ccccc1CCO	43 to 45 °C
C1=Cc2cc(C=C(c3ccc4c(c3)C=C4)c3ccc4c(c3)C=C4)ccc21	87 to 89 °C
O=C(c1ccc(F)cc1)C1CCN(S(=O)(=O)c2ccccc2)CC1	106 to 109 °C
O=C(Nc1ccc(OCCN2CCOCC2)c2ccccc12)OCC(Cl)(Cl)Cl	124 to 125 °C
C#CCOC[C@@H](NC(C)=O)C(=O)OC	58.5 to 59.5 °C

SMILES	melting point
CC(C)c1ccc(S(=O)(=O)NC(=O)Cc2ccc3c(c2)OCO3)cc1	262 to 263 °C
CCCCNS(=O)(=O)c1cc(C(=O)O)cc([N+](=O)[O-])c1Cl	199 to 201 °C
CCCN(CCC)C(=O)COC1Cc2cccc(OCC(O)CNC(C)(C)C)c2CC1OCC(=O)N(CCC)CCC (stereo not given)	124 to 134 °C
Cc1nccn1-c1cccc(C2=Nc3ccc(-c4ccccc4F)cc3NC(=O)C2)c1	187 °C
CCOC(=O)c1csnc1-c1ccc(C(F)(F)F)cc1	63 to 64 °C
Cc1ccc(-n2cnc3nncc-3c2N)cc1	> 300 °C
COc1nc2cc(Cl)c(Cl)cc2nc1NS(=O)(=O)c1cccc(Cl)c1Cl	283 to 285 °C
Cn1c(=O)sc2cc(C(=O)CSCCC(=O)O)c(Cl)cc21	120 to 121 °C
O=C(O)C1C2C=CC(C2)C1NS(=O)(=O)c1ccc(OCc2ccccc2)cc1 (stereo not given)	201 to 203 °C
COc1ccccc1N1CCN(CCCn2c(=O)[nH]c3c(c2=O)CCCC3)CC1	212 to 214 °C
CC(=O)N(CC(=O)N1c2ccccc2N(Cc2ccccc2)C(=O)[C@H]2CCC[C@H]21)Cc1ccccc1 (relative stereo)	179 to 181 °C
CC(C)CC(=O)Oc1n[nH]c(=O)c2nc3cc(Cl)ccc3c(O)c12	> 400 °C
Cc1cc(Br)cnc1C#N	86 to 88 °C
CN(CCc1ccccc1)C(=O)Cn1cc(CCC(=O)O)c2cc(OCc3ccccc3)ccc21	122 to 125 °C
CCN(CC)c1cccc(OCCOS(N)(=O)=O)c1	105 to 106 °C
O=C(O)c1cc(SCc2ccccc2)c(-c2ccccc2)c([N+](=O)[O-])c1	188 to 189 °C
Cc1cc(F)ccc1-c1ccc(S(=O)(=O)N2c3ccccc3CC2C(=O)NCc2ccccc2[N+](=O)[O-])cc1 (stereo not given)	64 to 66 °C
Cn1c2c(c3ccccc31)CCN1C(=O)CCC21C (stereo not given)	132 to 134 °C
CNC[C@@H]1c2ccccc2Oc2ccc(Cl)cc2[C@H]1C(=O)O (relative stereo)	154 °C
CO/N=C(/C)c1cccc(NC(=O)NCC(=O)N(CC(=O)N(C)c2ccccc2)c2ccccc2)c1	165 °C
CN1Cc2c(C#CC3(O)CCC3)ncn2-c2ccc(F)cc2C1=O	177 to 179 °C
CCc1nc(C2CC2)c(C(=O)O)n1Cc1ccc2oc(-c3ccccc3C(=O)NS(=O)(=O)c3ccccc3)c(Br)c2c1	176 to 178 °C
COc1ccc(S(=O)(=O)N2CCCC2c2ccc(F)cc2)cc1 (racemic)	134 °C
CCn1c(C)c(C(=O)c2ccc(N)cc2C(=O)O)c2ccccc21	187 to 189 °C
COC(=O)n1nc2nc3n(c(=O)c2c1N)CCS3	200 to 203 °C

SMILES	melting point
CCOC(=O)c1cnc2scnn2c1=O	228 to 230 °C
O=c1[nH]c2scc(Br)c2[nH]c1=O	295 to 296 °C
CN(C)CC1(CO)C(O)C(O)C(O)CN1C (stereo not given)	76 °C
N#CCCNC(=O)c1cccc(-c2cccc3oc(Cc4ccc(F)c(Cl)c4)cc23)c1	130 to 131 °C
Brc1ccc(OCc2ccc3ccccc3n2)cc1	103 to 105 °C
Cc1cc(C)nc(NC(=O)NS(=O)(=O)N2CCCC2)n1	180 to 181 °C
Cc1c(I)sc(I)c1Br	81 to 82 °C
O=C(Nc1cccc(S(=O)(=O)NC2CC2)c1)c1cnn2c(C(F)F)cc(-c3ccc(C(F)(F)F)cc3)nc12	252 °C
O=C(O)c1cc(Oc2ccc(C(F)(F)F)cc2Cl)ccc1Cl	103 to 104 °C
N#Cc1cc(S(=O)(=O)c2ccc([N+](=O)[O-])cc2)cc(Br)n1	158 to 160 °C
CN1CC=C(c2cc3ccccc3c(=O)[nH]2)CC1	222 to 223 °C
Cc1c(Sc2ccc(Cl)cc2)c2cc(NS(C)(=O)=O)ccc2n1CC(=O)O	214 °C
CCCNc1nc(OCC)nc2cscc12	140 to 142 °C
CCCCn1c(=O)c2nn(S(=O)(=O)c3cccc(C(F)(F)F)c3)cc2n(CCCC)c1=O	163 to 165 °C
COc1ccc2c(C(=O)O)cc3cc(OC)c(OC)cc3c2c1	241 to 243 °C
Fc1ccc(OCCN2CCC(CNc3nc4ccccc4s3)CC2)cc1	117 °C
CC(C(O)c1ccc2c(c1)CCCS2)N1CCC(NC(=O)c2ccccc2)CC1 (stereo not given)	200 to 201 °C
CN1CCCC1CCNc1ncc2c(c1C#N)-c1ccccc1C(c1ccc(Cl)c(Cl)c1)C2 (stereo not given)	131 to 134 °C
CC1(C)c2cc(O)ccc2OC1CO (stereo not given)	79 to 80 °C
CC(C)Sc1c(C(N)=O)sc2ccc(OCc3ccccc3)cc12	150 to 152 °C
Cc1c2c(nc3ccccc13)C(=Cc1ccc(Cl)c(Cl)c1)CC2	187 to 188 °C
CCCN(Cc1cccc(-c2noc(C)n2)c1)C(=O)Nc1ccc(-c2ccccc2S(=O)(=O)NC(C)(C)C)cc1	150 to 151 °C
CN1CCC(c2c[nH]c3ccc(Br)cc23)C1 (stereo not given)	152 to 154 °C
O=C1NC(=O)c2c1c(-c1ccccc1Cl)cc1c2c2cc(O)ccc2n1CCCc1nnn[nH]1	269 to 272 °C
O=C(c1ccc(Cl)cc1Cl)C1(n2cncn2)CC1	55 to 56 °C

SMILES	melting point
COC(=O)CCC#Cc1cc(Cl)ccc1NS(=O)(=O)c1ccc2c(c1)CCN2C(C)=O	154 °C
CN(C)C(=O)Sc1nc(-c2ccccc2)cn1-c1ccc([N+](=O)[O-])cn1	200 to 201 °C
CC1(C)C2CC[C@@]1(N1CCCCC1)[C@H](O)C2	88.5 to 89.5 °C
CCCCS(=O)C1CC(=O)N1CC(=O)CCc1ccccc1 (stereo not given)	145 to 146 °C
OCCCc1ccc2ccccc2c1O	85 to 86 °C
COc1cc(OC2CCN(S(=O)(=O)CCNC3CC3)CC2)ccc1CC(=O)N1CCN(c2ccccc2C)CC1C(N)=O (stereo not given)	69 to 110 °C
COc1ccc(CCNC(=O)CCc2ccc(Cl)cc2)cc1C	142 to 144 °C
COc1cc(C=Cc2nc3c([nH]2)c(=O)n(C)c(=O)n3C)cc(OC)c1	> 320 °C
CNC(=O)OC(Cn1cncn1)c1ccc(Cl)cc1Cl (stereo not given)	204 °C
CCOC(=O)c1ccc(-c2ccc(-c3ccccc3OC)c(-c3ccc4c(c3)C(C)(C)CCC4(C)C)c2)cc1	133 to 136 °C
C=CCN1C(=O)C(C)N(c2ccc(Oc3ccccc3)cc2)C1=S (stereo not given)	77 °C
Cn1c2c(c3cccc(F)c31)C(=O)NCC2	242 °C
COc1cc(NC(=O)C2C(=O)N(C)C(=O)N(C)C2=O)ccc1O	252 to 253 °C
O=c1[nH]c2cc(Cl)c(Cl)cc2[n+]([O-])c1-c1ccccc1	300 to 302 °C
CN1CCC(c2[nH]c(=O)c3ccccc3c2-c2ccc(Cl)cc2)CC1	254 to 256 °C
O=C1CCCC(CN2CC=C(c3ccccc3)CC2)C1 (stereo not given)	56 to 59 °C
N#CC=Cc1ccc(-c2ccccc2)cc1	43.7 °C
Cc1c(C)c(N)c2c(c1C)C(=O)C(C)(C)O2	141 to 142 °C
O=C(NCC(F)(F)F)c1cc(Cl)cc(Cl)c1	145 to 147 °C
NS(=O)(=O)c1ccc(NC(=O)c2ccccc2SSc2ccccc2C(=O)O)cc1	276 to 278 °C
CCCCCCCCSc1nc(NCC(C)(C)c2cc(C(C)(C)C)c(O)c(C(C)(C)C)c2)nc(NC2CC(C)(C)NC(C)(C)C2)n1	130 °C
COC(=O)C=Cc1ccc(OC)cc1	85 to 86 °C
CNS(=O)(=O)N(C)C(=O)CCCl	96 °C
CCOC(=O)c1ccc(-c2ccc(OC)cc2)cc1	103 to 104 °C
CC(C)[C@H](NC(=O)OCc1ccccn1)C(=O)N[C@@H](Cc1ccccc1)C[C@H](O)[C@H](Cc1ccccc1)NC(=O)[C@@H](NC(=O)OCc1ccccn1)C(C)C	220 to 222 °C
